This passage reports melting point results from a melting point compilation (Tetko et al.; mined from patent text by program, amines drawn as free bases though some values may be those of a salt).

The structures appear in SMILES notation. Residues, ends and D or L forms follow the SMILES beside them.

Regarding `CC(C)(C)OC(=O)Nc1ccc(C#Cc2ccccc2F)cc1N`, the melting point lay within 137 to 139 °C. Compound `S=S1N=C2SCSC2=N1` returned a melting point of 99 °C.

In the case of `CS(=O)(=O)Nc1ccc(/C=C\COCCCCCCNCC(O)c2cc(O)cc(O)c2)cc1` (configuration not stated), the melting point was 79 to 82 °C. Then `COc1cc(CC(=O)NCCCc2ccc(C)c(C)c2)ccc1OCCN(CCO)CCO`, with 54 to 58 °C. Consider `CCN1CCCC(CC)(c2ccc(Nc3ncc4ccc(-c5ccccc5OC)n4n3)cc2)C1` (configuration not stated), for which the melting point was 69 to 78 °C. Regarding `COCCOc1cc2ncc(C#N)c(Nc3ccc(C)c(O)c3)c2cc1OC`, the melting point lay in the range of 230 to 233 °C. With `Oc1ccc(-c2nc3ccc(O)cc3o2)cc1`, the melting point is more than 300 °C. Compound `Cc1ccc(-c2nn(-c3ccccc3)c(N)c2C#N)cc1` registered a melting point of 186 to 188 °C. With `c1ccc(OCNc2ccncc2)cc1`, the melting point was in the range of 159 to 160 °C. Take `CC1(C)OCCN1c1nc(-c2ccc(C#N)cc2)cs1`: the melting point fell in the range of 108 to 111 °C. Then `NS(=O)(=O)Oc1cccc([N+](=O)[O-])c1`, with 118 to 120 °C; and `CCCCCCN(C[C@H]1CC[C@H](CN(CCCCCC)C(=O)Nc2ccc(N(C)C)cc2)CC1)C(=O)Nc1ccc(N(C)C)cc1`, with 160 to 163 °C; and `CC(C)CC(NC(=O)C(Cc1ccccc1)NC(=O)CNC(=O)C(C)NC(=O)C(N)Cc1ccc(O)cc1)C(=O)NC(CCCNC(=N)N)C(=O)O` (configuration not stated) (H-YAGFLR-OH; configuration not given here), with 173 to 176 °C. Then `COc1cc2c(cc1O)CC(C)N(Cc1cc(OC)c(OC)c(OC)c1)C2` (configuration not stated), with 127 to 132 °C; and `O=S(=O)(NCCn1ccnc1)c1ccc(Br)cc1`, with 165 to 167 °C. `CCc1c(Cc2ccccc2)c2ccc(OC)cc2n1CC(=O)NN` had a melting point of 164 to 166 °C. Then `O=C(COc1cccc2ccccc12)c1cc(O)c(O)c([N+](=O)[O-])c1`, with 198 to 199 °C. Consider `CC(C)c1nn2ccccc2c1S(=O)(=O)c1ccc(O)cc1`, for which the melting point came out at 146 °C.

On to `CC(C)(C)c1ccc(S(=O)(=O)NCc2ccc(C(=O)O)cc2)cc1`, for which the melting point was in the range of 290 to 291 °C. `Cc1cnc2c(c1)CCCC2=NO` displayed a melting point of 188 °C. Turning to `CCOC(=O)COc1ccc(Br)cc1C(C)=O`, the melting point was 66 to 68 °C. For the compound `Nc1nc(N)c(-c2cc(Cl)cc(Cl)c2Cl)nc1CO`, the melting point was in the range of 185 to 186 °C. Then `CCNc1c(C(=O)OCC)c(C)nc(Cl)c1[N+](=O)[O-]`, with 36 to 37 °C; and `O=C1OCCN1CCN1CCN(C2Cc3cc(Br)ccc3Sc3ccccc32)CC1` (configuration not stated), with 170 to 172 °C; and `C/C(=N\O)c1ccc(SSc2ccc(/C(C)=N/O)cn2)nc1`, with 200 to 201 °C. Regarding `C=C(C)C(=O)NCCC#N`, the melting point was in the range of 46 to 48 °C. Then `COc1cccc2c(=O)c(C(N)=O)c(N)oc12`, with 302 °C; and `COc1nc(C)nc(NC(=O)NS(=O)(=O)c2ccccc2-n2nnnc2C)n1`, with 207 to 209 °C. Then `Cc1cc(CCCCCOc2c(C)cc(-c3nc(C)no3)cc2C)on1`, with 54 to 56 °C; and `CCCn1ncc2c(=O)[nH]c(-c3ccccc3OCC)nc21`, with 154 to 155 °C; and `CCCOc1ccc(F)c2c1c(CCN(C)C)cn2CC`, with 49 to 50 °C. Take `CCCCOc1ccc(C[C@H](NC(=O)[C@H]2CC[C@H](C(C)C)CC2)C(=O)O)cc1`: the melting point was 120 to 121 °C.

As for `CCCC=C(NC(=O)c1ccccc1)C(=O)OCC`, the melting point was in the range of 68 to 70 °C.

Take `CCCc1nc2c(N)nc(C)c(C)c2n1CCCCNC(C)=O`: the melting point is 200 to 201 °C. Then `C=CCSc1cc(C(=O)O)cc(N)c1C(=O)c1ccccc1`, with 152 to 154 °C. With `COc1cc2oc(=O)c3c(c2cc1[N+](=O)[O-])CCN(CC(C)=O)C3`, the melting point fell in the range of 222 to 225 °C.

In turn, `CN1CCN(Cc2cc(-c3ccccc3)c3c(n2)OCCN(Cc2cc(C(F)(F)F)cc(C(F)(F)F)c2)C3=O)CC1` registered a melting point of 181 to 182 °C. Then `CNC(=NC#N)NCCSc1nccc(NC(N)=NCC(F)(F)F)n1`, with 218 to 221 °C. Then `O=S(=O)(c1c[nH]cc1-c1ccc(Cl)cc1)C(F)(F)F`, with 138 to 141 °C; and `Cc1cc(NS(=O)(=O)c2cccs2)c2[nH]c(C3=NCCS3)cc2c1C`, with 201 to 202 °C; and `Fc1ccc(C(Cl)=NNc2ccccc2)cc1`, with 118 to 120 °C. On to `Cc1nc2ccc(CBr)cc2c(=O)n1COC(=O)C(C)(C)C`, for which the melting point is 144 to 145 °C. The compound `Sc1nnc(Cc2ccc(Cl)cc2)o1` gave a melting point of 115 °C. On to `C#Cc1ccc(C(=O)OC)nc1`, for which the melting point was in the range of 40 to 45 °C. Then `CN1CCN(C(=NS(=O)(=O)c2ccc(F)cc2)N2CC(c3ccccc3)C(c3cccnc3)=N2)CC1` (configuration not stated), with 169 to 170 °C; and `O=C(O)CCCCCOC(c1ccccc1)(c1ccccc1)c1ccccc1`, with 114 to 116 °C; and `CC(=O)CCCN1CC[C@H](CNC(=O)c2cc(Cl)c(N)c3c2OCC3)[C@H](O)C1` (relative stereo), with 118 °C. The compound `Cc1ccccc1C(=O)c1nc(Cl)ccc1[N+](=O)[O-]` returned a melting point of 111 to 112 °C. Regarding `Nc1ccc2c(c1)C(=O)CCO2`, the melting point lay within 136 to 137 °C.

Take `COc1ccc(C=CC(=O)c2cccc([N+](=O)[O-])c2)c(OC)c1`: the melting point lay in the range of 88.1 to 88.7 °C. Then `Cc1c(Cl)cccc1S(=O)(=O)Nc1ccc2nccnc2c1`, with 166 to 167 °C. In turn, `CCCOc1nc(C(F)(F)F)cc(=O)n1-c1cc(O)c(Cl)cc1F` displayed a melting point of 122 to 123 °C.

Compound `O=C1Nc2cccc(/C=C/c3ccccc3Cl)c2/C1=C/c1ccc[nH]1` had a melting point of 257 to 258 °C. Then `CCSc1cc2c(cc1SCC)C(=O)c1c(c(Cl)c3cc(SCC)c(SCC)cc3c1Cl)C2=O`, with more than 260 °C; and `Nc1nc(NC2CCCCC2)nc2c1ncn2C1C=CCCC1` (configuration not stated), with 108 to 111 °C; and `CC(C)OC(=O)c1cc(F)c(Cl)cc1Cl`, with 35 °C.

Regarding `CNc1nc(Nc2ccc(Cl)c(Cl)c2)ncc1NC(=O)Oc1ccccc1`, the melting point came out at 306 °C.

Turning to `Cn1ncnc1-c1ccc(C(=O)N2Cc3cccn3Cc3ccccc32)cc1`, the melting point lay within 155 to 158 °C.

In turn, `FC(F)c1nc2ccccc2n1-c1nc(Nc2ccccn2)nc(N2CCOCC2)n1` came in with a melting point of 230 to 232 °C. Then `COC(=O)C(=O)c1ccc(OCCOc2ccc(OC)cc2)cc1`, with 114 to 115 °C; and `CC(C)[C@@H]1C[C@@H]([C@H](CC2CCCCC2)N=[N+]=[N-])OC1=O`, with 38.5 to 39 °C. Then `C=CC(=O)OCc1cn(CCCCCCCCCCCCCCCC)nn1`, with 72 to 73 °C; and `O=C1CN(c2cccc(CF)c2)NC(=O)N1`, with 169 to 170 °C. Then `Cc1c(SCCN2CCCCC2)ccnc1CSc1nc2ccccc2[nH]1`, with 138 to 140 °C. As to `COCCc1cc(N)n2nc(SC)c(S(=O)(=O)c3ccccc3)c2n1`, the melting point was 186 to 187 °C.

`Cc1nccn1-c1ccc(-c2cnc([C@H](Cc3ccccn3)N(C=O)c3cc4ccccc4[nH]3)n2C)cc1` gave a melting point of 207 to 211 °C. Then `Cc1c(C(=O)Nc2ccc(N3CCC(N4CCOCC4)CC3)c(C#N)c2)cnn1-c1ccc(Br)cc1`, with 250 to 252 °C.

`O=C(O)Cc1cc(C(=O)C=Cc2ccc(Cl)cc2)ccc1O` had a melting point of 244 °C. Compound `c1cncc(-c2cc3ccccc3[nH]2)c1` displayed a melting point of 176 to 177 °C. `O=C(Nc1ccccc1O)c1cccnc1Cl`: the melting point was in the range of 145 to 146 °C. `Cc1cn2cc(NC(=O)c3cc4cc(F)ccc4n3Cc3cccc(F)c3)ccc2n1` gave a melting point of 200 to 203 °C. `CC(C)C(Nc1ccc(C(F)(F)F)cc1)C(N)=O` (configuration not stated) gave a melting point of 93 to 94 °C.

For `NC(=O)[C@H]1CN(c2ccc(C3=CCOCC3)c(F)c2)C(=O)O1`, the melting point is 164 to 169 °C.

`ON=CCCc1ccccc1`: the melting point was 85 to 93 °C. `N#CC=C1CC2(CCCC2)c2ccccc21` yielded a melting point of 82 °C.

In turn, `CCCCCCCCCCCCCCCC(=O)C1C(=O)CC(C#N)CC1=O` (configuration not stated) gave a melting point of 66 to 69 °C. Compound `CCCONC(=O)c1c(Cl)ccc(C(=O)OC)c1Cl` came in with a melting point of 80 to 81 °C.

Consider `O=C(O)c1cccc(CN2CCC(c3cn(Cc4cccs4)c4ccccc34)CC2)c1`, for which the melting point lay within 228 to 229 °C. Then `O=[N+]([O-])c1c(Cl)cccc1NCCO`, with 78 °C. The compound `O=c1c2cc(F)ccc2nc(CSc2ncnc3[nH]cnc23)n1-c1ccccc1Cl` gave a melting point of 233 °C. Then `COCn1ncc2cc(-c3nnc(SCc4ccc(OC)c(C(F)(F)F)c4)o3)ccc21`, with 158 to 159 °C; and `CCOC(=O)NC(=NCCCCc1ccccn1)NCCCc1c[nH]cn1`, with 92 to 94 °C; and `COc1ccc(CNc2n[nH]c3ncnc(Nc4cccc(Cl)c4)c23)cc1`, with 222 to 223 °C. Then `CN(C)C(=O)N(C)c1nnc(SCc2ccccc2)s1`, with 48 to 51 °C. Then `NC(c1ccccc1CNc1ccnc2cc(Cl)ccc12)c1ccnc2cc(Cl)ccc12` (configuration not stated), with more than 250 °C; and `Cc1cc(-c2ccc(S(C)(=O)=O)cc2)n(-c2ccc(F)cc2)c1F`, with 109 to 110 °C. The compound `O=C(CCl)Nc1ccc2[nH]c(=O)oc2c1` showed a melting point of 228 to 231 °C.

Consider `N#CSCC(Br)=C(Br)CSC#N`, for which the melting point is 180 °C.

Turning to `CCN(CC)S(=O)(=O)c1ccc2c(c1)C(C(Cl)(Cl)Cl)OC(C(Cl)(Cl)Cl)O2` (configuration not stated), the melting point was 125 to 126 °C. As for `COc1ccc(COCC(O)Cn2ccnc2)cc1` (configuration not stated), the melting point was 96 to 98 °C. `CC(=C(Br)Br)c1cn(-c2c(Cl)cc(C(F)(F)F)cc2Cl)nc1C#N` returned a melting point of 119 to 122 °C. Then `Nc1cc(Cl)ccc1-n1cccc1`, with 89 to 90 °C.

Broadly, the melting point is the temperature of the solid-liquid transition.
